Source: ChEMBL document CHEMBL1201862, “PubChem BioAssay data set” (2004)
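Step 1: Grow cells in 96-well plates. Step 2: Expose to compound for 48 hours at 5 concentrations. Step 3: Interpolate endpoints linearly; if unreached, use highest concentration. GI50: concentration for 50% inhibition of growth.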 Calls of active or inactive are those of the source. No stated cut-off is given here; in the data, active = GI50 up to about 1.1 µM and inactive = higher.

How the values were obtained:
Assay in all cases: NCI anticancer screen, dose series, 48 h
[1] = system: DLD-1
[2] = system: OVCAR-3
[3] = system: RXF 631
[4] = system: DMS-114
[5] = system: HCC 2998
[6] = system: COLO 205
[7] = system: LXFL 529
[8] = system: U-251
[9] = system: HCT-116
[10] = system: SK-OV-3
[11] = system: HOP-18
[12] = system: ACHN
[13] = system: SK-MEL-2
[14] = system: M19-MEL
[15] = system: SF-539
[16] = system: XF498
[17] = system: SK-MEL-28
[18] = system: RPMI-8226
[19] = system: K562
[20] = system: NCI-H522
[21] = system: KM-20L2
[22] = system: OVCAR-8
[23] = system: HL-60
[24] = system: KM12
[25] = system: SW-620
[26] = system: NCI-H460
[27] = system: SF-268
[28] = system: MOLT-4
[29] = system: SNB-78
[30] = system: DMS-273
[31] = system: EKVX
[32] = system: HOP-62
[33] = system: A498
[34] = system: LOX IMVI
[35] = system: HT-29
[36] = system: CCRF-CEM
[37] = system: UACC-257
[38] = system: RXF 393
[39] = system: SNB-75
[40] = system: SF-295
[41] = system: Malme-3M
[42] = system: A549
[43] = system: IGROV-1
[44] = system: 786-0
[45] = system: NCI-H23
[46] = system: OVCAR-5
[47] = system: TK-10
[48] = system: UO-31
[49] = system: HOP-92
[50] = system: SK-MEL-5
[51] = system: NCI-H226
[52] = system: SNB-19
[53] = system: OVCAR-4
[54] = system: SR
[55] = system: HCT-15
[56] = system: M14
[57] = system: SN12C
[58] = system: CAKI-1
[59] = system: UACC-62

COc1cccc2c1OC1Sc3ccccc3-c3nn(-c4ccccc4)c-2c31 (stereo unspecified)
GI50 [1]: > 100 µM (inactive)
GI50 [2]: > 100 µM (inactive)
GI50 [3]: > 100 µM (inactive)
GI50 [4]: > 100 µM (inactive)
GI50 [5]: > 100 µM (inactive)
GI50 [6]: > 100 µM (inactive)
GI50 [7]: > 100 µM (inactive)
GI50 [8]: > 100 µM (inactive)
GI50 [9]: > 100 µM (inactive)
GI50 [10]: > 100 µM (inactive)
GI50 [11]: > 100 µM (inactive)
GI50 [12]: > 100 µM (inactive)
GI50 [13]: > 100 µM (inactive)
GI50 [14]: > 100 µM (inactive)
GI50 [15]: > 100 µM (inactive)
GI50 [16]: > 100 µM (inactive)
GI50 [17]: > 100 µM (inactive)
GI50 [18]: > 100 µM (inactive)
GI50 [19]: > 100 µM (inactive)
GI50 [20]: 26.7 µM (inactive)
GI50 [21]: > 100 µM (inactive)
GI50 [22]: > 100 µM (inactive)
GI50 [23]: > 100 µM (inactive)
GI50 [24]: > 100 µM (inactive)
GI50 [25]: > 100 µM (inactive)
GI50 [26]: > 100 µM (inactive)
GI50 [27]: > 100 µM (inactive)
GI50 [28]: > 100 µM (inactive)
GI50 [29]: > 100 µM (inactive)
GI50 [30]: > 100 µM (inactive)
GI50 [31]: > 100 µM (inactive)
GI50 [32]: > 100 µM (inactive)
GI50 [33]: > 100 µM (inactive)
GI50 [34]: > 100 µM (inactive)
GI50 [35]: > 100 µM (inactive)
GI50 [36]: > 100 µM (inactive)
GI50 [37]: > 100 µM (inactive)
GI50 [38]: > 100 µM (inactive)
GI50 [39]: > 100 µM (inactive)
GI50 [40]: > 100 µM (inactive)
GI50 [41]: > 100 µM (inactive)
GI50 [42]: > 100 µM (inactive)
GI50 [43]: > 100 µM (inactive)
GI50 [44]: > 100 µM (inactive)
GI50 [45]: > 100 µM (inactive)
GI50 [46]: > 100 µM (inactive)
GI50 [47]: > 100 µM (inactive)
GI50 [48]: > 100 µM (inactive)
GI50 [49]: > 100 µM (inactive)

NCCSSCc1ccccc1CSSCCN
GI50 [1]: 48.4 µM (inactive)
GI50 [2]: > 100 µM (inactive)
GI50 [3]: > 100 µM (inactive)
GI50 [4]: > 100 µM (inactive)
GI50 [5]: 50.1 µM (inactive)
GI50 [6]: > 100 µM (inactive)
GI50 [50]: 57.9 µM (inactive)
GI50 [7]: 50 µM (inactive)
GI50 [51]: > 100 µM (inactive)
GI50 [8]: > 100 µM (inactive)
GI50 [9]: > 100 µM (inactive)
GI50 [10]: > 100 µM (inactive)
GI50 [11]: > 100 µM (inactive)
GI50 [12]: 8.65 µM (inactive)
GI50 [52]: > 100 µM (inactive)
GI50 [14]: 29.2 µM (inactive)
GI50 [15]: > 100 µM (inactive)
GI50 [53]: > 100 µM (inactive)
GI50 [54]: 41.7 µM (inactive)
GI50 [16]: > 100 µM (inactive)
GI50 [17]: > 100 µM (inactive)
GI50 [18]: 67.8 µM (inactive)
GI50 [19]: 16.4 µM (inactive)
GI50 [20]: 14.1 µM (inactive)
GI50 [21]: > 100 µM (inactive)
GI50 [22]: 66.2 µM (inactive)
GI50 [23]: 8.02 µM (inactive)
GI50 [55]: 38.5 µM
GI50 [24]: > 100 µM (inactive)
GI50 [25]: 20.4 µM (inactive)
GI50 [26]: > 100 µM (inactive)
GI50 [27]: > 100 µM (inactive)
GI50 [28]: 30.5 µM (inactive)
GI50 [56]: > 100 µM (inactive)
GI50 [29]: > 100 µM (inactive)
GI50 [30]: 48.9 µM (inactive)
GI50 [31]: > 100 µM (inactive)
GI50 [32]: > 100 µM (inactive)
GI50 [33]: > 100 µM (inactive)
GI50 [34]: 14 µM (inactive)
GI50 [57]: > 100 µM (inactive)
GI50 [35]: 97.1 µM (inactive)
GI50 [58]: > 100 µM (inactive)
GI50 [37]: > 100 µM (inactive)
GI50 [38]: > 100 µM (inactive)
GI50 [39]: > 100 µM (inactive)
GI50 [40]: > 100 µM (inactive)
GI50 [41]: 72.3 µM (inactive)
GI50 [42]: > 100 µM (inactive)
GI50 [59]: > 100 µM (inactive)
GI50 [43]: > 100 µM (inactive)
GI50 [44]: > 100 µM (inactive)
GI50 [45]: > 100 µM (inactive)
GI50 [46]: > 100 µM (inactive)
GI50 [47]: > 100 µM (inactive)
GI50 [48]: > 100 µM (inactive)
GI50 [49]: > 100 µM (inactive)
